Measured values: ChEMBL document CHEMBL2157919, “Attenuation of collagen-induced arthritis by orally available imidazoline-based NF-κB inhibitors” (Bioorg Med Chem Lett, 2012)
Active and inactive are the calls of the source. No cut-off for these calls is given here.

Columns and labels:
Mus musculus [1] = assay: Antiarthritic activity in BALB/c mouse type 2 collagen antibody-induced arthritis model assessed as physiological disease-modifying affect at 50 mg/kg, ip qd for 14 days measured on day 20 relative to control; format: functional, organism-based; set-up: dose 50 mg/kg
[2] = Plasma concentration in BALB/c mouse at 400 mg/kg, po after 3 hrs; format: ADME, organism-based; set-up: dose 400 mg/kg, route oral
Mus musculus [3] = assay: Toxicity in BALB/c mouse type 2 collagen antibody-induced arthritis model assessed as change in body weight at 50 mg/kg, ip qd for 14 days measured on day 20; format: organism-based; set-up: dose 50 mg/kg, route intraperitoneal; conditions: in vivo, 336 h
[4] = Plasma concentration in BALB/c mouse at 200 mg/kg, po after 3 hrs; format: ADME, organism-based; set-up: dose 200 mg/kg, route oral
Mus musculus [5] = assay: Antiinflammatory activity in BALB/c mouse assessed as reduction of LPS-induced TNFalpha production in serum at 5 mg/kg, po administered 1 hr before LPS challenge measured after 3 hrs by EIA relative to LPS treated control; format: functional; set-up: scale not given: the % may be the effect or the level left
Mus musculus [6] = assay: Antiarthritic activity in BALB/c mouse type 2 collagen antibody-induced arthritis model assessed as inhibition of disease burden at 50 mg/kg, ip qd for 14 days measured on day 20 relative to control; format: functional; conditions: route intraperitoneal
[7] = Plasma concentration in BALB/c mouse at 50 mg/kg, po after 3 hrs; format: ADME, organism-based; set-up: dose 50 mg/kg, route oral
[8] = Plasma concentration in BALB/c mouse at 50 mg/kg, ip after 3 hrs; format: ADME, organism-based; set-up: dose 50 mg/kg, route intraperitoneal
Mus musculus [9] = assay: Antiinflammatory activity in BALB/c mouse assessed as reduction of LPS-induced TNFalpha production in serum at 5 to 100 mg/kg, po administered 1 hr before LPS challenge measured after 3 hrs by EIA; format: functional; set-up: scale not given: the % may be the effect or the level left; conditions: dose mg/kg 5-100
Mus musculus [10] = assay: Antiarthritic activity in BALB/c mouse type 2 collagen antibody-induced arthritis model assessed as reduction of cartilage damage at 150 mg/kg, ip qd for 14 days measured on day 20 relative to control; format: functional, organism-based; set-up: dose 150 mg/kg
Mus musculus [11] = assay: Antiarthritic activity in BALB/c mouse type 2 collagen antibody-induced arthritis model assessed as physiological disease-modifying affect at 150 mg/kg, ip qd for 14 days measured on day 20 relative to control; format: functional, organism-based; set-up: dose 150 mg/kg
Mus musculus [12] = assay: Hepatotoxicity in BALB/c mouse assessed as increase in serum ALT level at 50 mg/kg, po after 6 hrs; format: toxicity, organism-based; set-up: dose 50 mg/kg, route oral; conditions: in vivo
Mus musculus [13] = assay: Antiarthritic activity in BALB/c mouse type 2 collagen antibody-induced arthritis model assessed as reduction of inflammation at 150 mg/kg, ip qd for 14 days measured on day 20 relative to control; format: functional, organism-based; set-up: dose 150 mg/kg
Mus musculus [14] = assay: Hepatotoxicity in BALB/c mouse assessed as increase in serum ALT level at 150 mg/kg, po after 6 hrs; format: toxicity, organism-based; set-up: dose 150 mg/kg, route oral; conditions: in vivo
Mus musculus [15] = assay: Hepatotoxicity in BALB/c mouse assessed as increase in serum ALT level at 50 mg/kg, ip after 13 to 19 days; format: toxicity, organism-based; set-up: dose 50 mg/kg, route intraperitoneal; conditions: in vivo
Mus musculus [16] = assay: Antiarthritic activity in BALB/c mouse type 2 collagen antibody-induced arthritis model assessed as reduction of pannus formation at 150 mg/kg, ip qd for 14 days measured on day 20 relative to control; format: functional, organism-based; set-up: dose 150 mg/kg
Mus musculus [17] = assay: Hepatotoxicity in BALB/c mouse assessed as increase in serum ALT level at 150 mg/kg, ip after 13 to 19 days; format: toxicity, organism-based; set-up: dose 150 mg/kg, route intraperitoneal; conditions: in vivo
Mus musculus [18] = assay: Antiarthritic activity in BALB/c mouse type 2 collagen antibody-induced arthritis model assessed as reduction of bone resorption at 150 mg/kg, ip qd for 14 days measured on day 20 relative to control; format: functional, organism-based; set-up: dose 150 mg/kg
Mus musculus [19] = assay: Antiarthritic activity in BALB/c mouse type 2 collagen antibody-induced arthritis model assessed as inhibition of disease burden at 150 mg/kg, ip qd for 14 days measured on day 20 relative to control; format: functional; conditions: route intraperitoneal
Mus musculus [20] = assay: Antiarthritic activity in BALB/c mouse type 2 collagen antibody-induced arthritis model assessed as reduction of exostosis at 150 mg/kg, ip qd for 14 days measured on day 20 relative to control; format: functional, organism-based; set-up: dose 150 mg/kg
Mus musculus [21] = assay: Toxicity in BALB/c mouse type 2 collagen antibody-induced arthritis model assessed as change in body weight at 150 mg/kg, ip qd for 14 days measured on day 20; format: organism-based; set-up: dose 150 mg/kg, route intraperitoneal; conditions: in vivo, 336 h
Mus musculus [22] = assay: Toxicity in BALB/c mouse type 2 collagen antibody-induced arthritis model assessed as change in body weight at 3 mg/kg, po qd for 14 days measured on day 20; format: organism-based; set-up: dose 3 mg/kg, route oral; conditions: in vivo, 336 h
Mus musculus [23] = assay: Antiarthritic activity in BALB/c mouse type 2 collagen antibody-induced arthritis model assessed as physiological disease-modifying affect at 3 mg/kg, po qd for 14 days measured on day 20 relative to control; format: functional, organism-based; set-up: dose 3 mg/kg
Mus musculus [24] = assay: Antiarthritic activity in BALB/c mouse type 2 collagen antibody-induced arthritis model assessed as inhibition of disease burden at 3 mg/kg, po qd for 14 days measured on day 20 relative to control; format: functional

Compound: CCOC(=O)[C@]1(c2ccccc2)N=C(c2ccccc2)N(Cc2ccccc2)[C@@H]1c1ccccc1
- Activity (Mus musculus [1]): Active
- concentration at 3 h [2]: 9 µM
- Activity (Mus musculus [3]): Non-toxic
- concentration at 3 h [4]: 4 µM
- Activity (Mus musculus [5]): 50%
- inhibition in vivo at 50 mg/kg (Mus musculus [6]): 67%
- concentration at 3 h [7]: 2 µM
- concentration at 3 h [8]: 6 µM
- Activity (Mus musculus [9]): 50%

Compound: CCOC(=O)C1(c2ccccc2)N=C(c2ccccc2)N(Cc2ccccc2)C1c1ccccc1 (racemic)
- Activity (Mus musculus [10]): Active
- Activity (Mus musculus [11]): Active
- Activity (Mus musculus [12]): Non-toxic
- Activity (Mus musculus [13]): Active
- Activity (Mus musculus [14]): Non-toxic
- Activity (Mus musculus [15]): Non-toxic
- Activity (Mus musculus [16]): Active
- Activity (Mus musculus [17]): Non-toxic
- Activity (Mus musculus [18]): Active
- inhibition in vivo at 150 mg/kg (Mus musculus [19]): 94%
- Activity (Mus musculus [20]): Active
- Activity (Mus musculus [21]): Non-toxic

Compound: C[C@@H]1C[C@H]2[C@@H]3CCC4=CC(=O)C=C[C@]4(C)[C@@]3(F)[C@@H](O)C[C@]2(C)[C@@]1(O)C(=O)CO [DEXAMETHASONE]
- Activity (Mus musculus [22]): Toxic
- Activity (Mus musculus [23]): Active
- inhibition in vivo at 3 mg/kg (Mus musculus [24]): 102%
